Earlier results in EP0114993B1, “Renin inhibitory tripeptides” (Merck & Co., Inc., priority 1982, dated 1990).

System: hog renin
Conditions: after the injection of hog renin into nephrectomized rats; Gross et al., Science 175:656, 1971

pepstatin
blood pressure in vivo: reduce blood pressure
